# Data published in ChEMBL document CHEMBL1145487, “Evidence and possible consequences of the phosphorylation of nucleoside reverse transcriptase inhibitors in human red blood cells” (Antimicrob Agents Chemother, 2007).
# How the values were obtained:
# [1] = Drug level in human RBC assessed as concentration of tenofovir diphosphate per 10^6 cells after 11.9 hrs; format: ADME, cell-based; conditions: erythrocyte
# [2] = Drug level in human RBC assessed as concentration of tenofovir diphosphate per 10^6 cells after 13.3 hrs; format: ADME, cell-based; conditions: erythrocyte
# [3] = Drug level in human RBC assessed as concentration of tenofovir diphosphate per 10^6 cells after 0.8 hrs; format: ADME, cell-based; conditions: erythrocyte
# [4] = Drug level in human RBC assessed as concentration of tenofovir diphosphate per 10^6 cells after 14.3 hrs; format: ADME, cell-based; conditions: erythrocyte
# [5] = Drug level in human RBC assessed as concentration of tenofovir diphosphate per 10^6 cells after 13.5 hrs; format: ADME, cell-based; conditions: erythrocyte
# [6] = tested on: PBMC; experiment: Drug level in human PBMC assessed as concentration of tenofovir diphosphate per 10^6 cells after 11.9 hrs; format: ADME, cell-based
# [7] = tested on: PBMC; experiment: Drug level in human PBMC assessed as concentration of tenofovir diphosphate per 10^6 cells after 13.9 hrs; format: ADME, cell-based
# [8] = tested on: PBMC; experiment: Drug level in human PBMC assessed as concentration of tenofovir diphosphate per 10^6 cells after 0.8 hrs; format: ADME, cell-based
# [9] = tested on: PBMC; experiment: Drug level in human PBMC assessed as concentration of tenofovir diphosphate per 10^6 cells after 14.3 hrs; format: ADME, cell-based
# [10] = Ratio of drug level in human RBC to human PBMC assessed as concentration of Lamivudine triphosphate after 0.8 hrs; format: ADME; conditions: erythrocytes
# [11] = Ratio of drug level in human RBC to human PBMC assessed as concentration of Lamivudine triphosphate after 14.3 hrs; format: ADME; conditions: erythrocytes
# [12] = Ratio of drug level in human RBC to human PBMC assessed as concentration of lamivudin triphosphate after 13.5 hrs; format: ADME; conditions: erythrocytes
# [13] = tested on: PBMC; experiment: Drug level in non-lysed human PBMC assessed as concentration of tenofovir diphosphate after 2 hrs; format: ADME, cell-based
# [14] = tested on: PBMC; experiment: Drug level in non-lysed human PBMC assessed as concentration of tenofovir diphosphate after 9.5 hrs; format: ADME, cell-based
# [15] = tested on: PBMC; experiment: Drug level in RBC lysed human PBMC assessed as concentration of tenofovir diphosphate after 2 hrs; format: ADME, cell-based
# [16] = tested on: PBMC; experiment: Drug level in RBC lysed human PBMC assessed as concentration of tenofovir diphosphate after 9.5 hrs; format: ADME, cell-based
# [17] = tested on: PBMC; experiment: Ratio of drug level in non-lysed human PBMC to RBC lysed human PBMC assessed as concentration of tenofovir diphosphate after 2 hrs; format: ADME, cell-based
# [18] = tested on: PBMC; experiment: Ratio of drug level in non-lysed human PBMC to RBC lysed human PBMC assessed as concentration of tenofovir diphosphate after 9.5 hrs; format: ADME, cell-based
# [19] = tested on: PBMC; experiment: Drug level in human PBMC assessed as concentration of tenofovir diphosphate per 10^6 cells after 13.5 hrs; format: ADME, cell-based
# [20] = Ratio of drug level in human RBC to human PBMC assessed as concentration of Lamivudine triphosphate after 11.9 hrs; format: ADME; conditions: erythrocytes
# [21] = Ratio of drug level in human RBC to human PBMC assessed as concentration of Lamivudine triphosphate after 13.3 hrs; format: ADME; conditions: erythrocytes
# [22] = Drug level in human RBC assessed as concentration of Lamivudine triphosphate per 10^6 cells; format: ADME, cell-based; conditions: erythrocyte
# [23] = Drug level in human RBC assessed as concentration of Lamivudine triphosphate per 10^6 cells after 0.3 hrs; format: ADME, cell-based; conditions: erythrocyte
# [24] = tested on: PBMC; experiment: Drug level in human PBMC assessed as concentration of Lamivudine triphosphate per 10^6 cells; format: ADME, cell-based
# [25] = tested on: PBMC; experiment: Drug level in human PBMC assessed as concentration of Lamivudine triphosphate per 10^6 cells after 0.3 hrs; format: ADME, cell-based
# [26] = Ratio of drug level in human RBC to human PBMC assessed as concentration of Lamivudine triphosphate; format: ADME; conditions: erythrocytes
# [27] = Ratio of drug level in human RBC to human PBMC assessed as concentration of Lamivudine triphosphate after 0.3 hrs; format: ADME; conditions: erythrocytes
compound,measurement,setting,value
CC(C)OC(=O)OCOP(=O)(CO[C@H](C)Cn1cnc2c(N)ncnc21)OCOC(=O)OC(C)C.O=C(O)/C=C/C(=O)O [TENOFOVIR DISOPROXIL FUMARATE],Drug uptake,[1],143 fmol
same,Drug uptake,[2],165 fmol
same,Drug uptake,[3],443 fmol
same,Drug uptake,[4],73.3 fmol
same,Drug uptake,[5],245 fmol
same,Drug uptake,[6],131 fmol
same,Drug uptake,[7],148 fmol
same,Drug uptake,[8],226 fmol
same,Drug uptake,[9],95.5 fmol
same,Ratio,[10],2
same,Ratio,[11],0.8
same,Ratio,[12],1.2
same,Drug uptake,[13],302.6 fmol
same,Drug uptake,[14],1287 fmol
same,Drug uptake,[15],376.6 fmol
same,Drug uptake,[16],182.5 fmol
same,Ratio,[17],0.8
same,Ratio,[18],7.05
same,Drug uptake,[19],202 fmol
same,Ratio,[20],1.1
same,Ratio,[21],1.1
"Nc1ccn([C@@H]2CS[C@H](CO)O2)c(=O)n1 (single isomer, unassigned) [LAMIVUDINE]",Drug uptake,[22],0.04 pmol
same,Drug uptake,[23],0.09 pmol
same,Drug uptake,[24],11.1 pmol
same,Drug uptake,[25],10.5 pmol
same,Ratio,[26],0.004
same,Ratio,[27],0.009
